The values below come from ChEMBL document CHEMBL1201862, “PubChem BioAssay data set” (2004).

Among the test systems are XF498; DMS-273; KM-20L2; M19-MEL; RXF 631; DLD-1; LXFL 529; HOP-18; SNB-78.
Holding throughout (test): DTP human tumour cell line panel, 48 h

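Test compounds were applied to cells in 96-well plates for 48 hours at 5 doses. GI50 is the concentration that inhibits growth by half.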 The source made the active and inactive calls. Cut-off read from the data, not from the text of the source: active = GI50 up to about 1.1 µM and inactive = higher.

On to `C[N+](C)(C)CC1CCC(C[N+](C)(C)C)C1=O` (centres undefined), for which the GI50 in the test on XF498 was 2.03 µM (inactive); with DMS-273, 2.16 µM (inactive); with KM-20L2 it was 3.18 µM (inactive); with M19-MEL, 1.94 µM (inactive); with RXF 631, 5.47 µM (inactive); in the test with DLD-1, 2.2 µM (inactive). Moreover, the GI50 in the test with LXFL 529 was 0.555 µM (active); in the test with HOP-18, 0.794 µM (active); in the test with SNB-78 it was 2.4 µM (inactive).
